Measured values reported in US20250255847A1, “[…]s: Novel Drugs for Triple Negative Breast Cancer” (SIMMARON RSEARCH INC, priority 2024, published 2025).

Experiments:
[1] = test system: human mammary epithelial cells (HMECs); assay: LDH assay in healthy human mammary epithelial cells; assay type: cell-based; details: 1, 2, 5, 10 and higher nM doses, 48 hrs
Method: FIG. 11 illustrates an embodiment of the present invention and illustrates SIM-1 and SIM-2 induced apoptosis in MDA-MB-468 TNBC cells, but not HMEC control cells. MDA-MB-468 cells were treated with increasing doses of (A) SIM-1 and (B) SIM-2 for 48 hrs followed by lactate dehydrogenase (LDH) release assay in the supernatants. The result was offset with cell-bound LDH and presented as a percent of DMSO control as discussed under method section. Half-maximal cytotoxicity or CT50 analyses were performed plotting maximum response as an index of increasing doses of (C) SIM-1 and (D) SIM-2. AnnexinV (green) and propidium iodide (red) dual-labeling were performed to evaluate apoptotic response in MDA-MB-468 cells once treated with increasing doses of (E) SIM-1 and (F) SIM-2 for 24 hrs. Nuclei were stained with DAPI. TUNEL assay was performed in MDA-MB-468 cells after treatment with 25 nM of (G) SIM-1. Brown-colored TUNEL bodies were visualized at cresyl violet-stained blue nuclei. (H) The number of TUNEL bodies were counted as a percent of 100 cresyl violet-stained blue cells. Ten independent images were counted for the quantification study. Similarly, SIM-2 was assessed for (I) TUNEL and (J) subsequent quantification analyses. […]
LDH Assay. […] Each dose was measured in triplicates. […] The plate was read at 490 nm (background at 680 nm). […]

[2] = target: T1, Y705P STAT3 and S727P STAT3 (Homo sapiens, UniProt P40763); assay: IHC and immunoblot of phospho-STAT3 in PDX tumors; assay type: in vivo, mouse; details: tumor tissue; for expression of Y705PSTAT3 (IHC): p<0.0001 versus vehicle
T1 construct: tissue Jackson Laboratories TM00096; host or cells: patient-derived TNBC tumour in NOD.Cg-Prkdcscid Il2rgtm1Wjl/SzJ mice
Method: FIG. 15 illustrates an embodiment of the present invention and illustrates SIM 1 and 2 inhibited Y705P phosphorylation of STAT3 and the expressions of STAT3-dependent tumor supportive genes. (A) DAB immunostaining of Y705P STAT3 in tumor parenchyma of all three groups. (B) Quantitative analysis of Y705P STAT3-ir cells was performed by counting Y705P STAT3 cells in 15 different images, converting into a percent scale, and then plotting in a scatter histogram. On-way ANOVA followed by multiple comparison test indicated ****p<0.0001 versus control. (C) DAB immunostaining of S727P STAT3 followed by a (D) quantitative analysis of S727P STAT3-ir cells was performed in 15 different images and then plotted as a percent of total cells by a scatter histogram. On-way ANOVA represents no significance (NS) between groups. (E) Immunoblot analyses of Y705PSTAT3 (Rabbit […] antibody Cat #710093; Invitrogen), S727PSTAT3 (Mouse 1° antibody cat #MA5-15208; Invitrogen) followed by normalization with loading control β-actin (Mouse 1° antibody cat #MA1-744; Invitrogen). (F) A cDNA-based gene array of 66 STAT3-dependent tumor promoting genes were analyzed in TNBC tumors of vehicle-, SIM-1-, and SIM-2-treated mice. (G) A scatter plot summarized the gene array results. Based on the relative levels of expressions, gene levels were classified as low, moderate, and highly expressed. Results are confirmed after three different experiments.
Immunoblot assay. Immunoblot assay was performed as described before. Briefly, cell lysates were mixed with 5× Lamelli buffer, electrophoresed in 4-12% Tris-Glycine gel in tris-glycine SDS running buffer, transferred in a nitrocellulose membrane (P/N 926-31090; Li-Cor Biosciences, Lincoln, NE) in tris-glycine transfer buffer, incubated with appropriate primary antibodies overnight under shaking condition, labeled with IRDye700 and 800-tagged secondary antibodies for 2 hrs at room temperature in an orbital shaker, and then imaged in Odyssey Sa imager at 200 μm resolution.
Immunohistochemical (IHC) analyses. Tumor tissues were embedded in paraffin, cut at a thickness of 5 μm in Leica microtome, attached to a charged slide, dried in a dry bath at 37° C. for at least 48 hrs., and then progressed for IHC analysis. The IHC analysis was performed where, briefly, sections were deparaffinized by xylene and rehydrated by ethanol gradient (100%>70%>50%>20%; v/v) followed by complete rehydration by water. After that sections were blocked by Intercept® (TBS) Blocking Buffer (Licor Biosciences, Lincoln, NE) for 30 minutes, incubated with primary (1°) antibodies (Refer to Table 1) overnight at 4° C., washed with 1×TBST wash buffer for 3 times, incubated with biotinylated anti-mouse (1:200 dilution) or anti-rabbit (1:200 dilution) secondary (2°) antibodies (ThermoFisher), for 2 hrs., reacted with VECTASTAIN® Elite® ABC-HRP Kit, Peroxidase (Cat #PK-6100; Vector Laboratories) for 1 hr. as per manufacturer's recommendation, and finally stained with DAB chromogenic solution (Cat #SK-4100; Vector Laboratories).
This example provides a representative experiment that tested if SIM-1 and SIM-2 suppressed the activation of STAT3 in TNBC tumors. […] The result was further corroborated by the quantitative analysis (FIG. 15B), which indicated a significant downregulation of Y705PSTST3-ir cells (One-way ANOVA indicated ****p<0.0001 versus vehicle).
On the contrary, the expression of S727PSTAT3, another active isomer of STAT3, remained very low and unchanged across the treatment groups (FIG. 15C).
These genes include anti-apoptotic genes such as bcl-2, survivin, and bcl-xl; cell cycle progression markers such as cyclin D1, akt, and p21.

T1 sequence (P40763 2-770 Y705P/S727P limits assumed): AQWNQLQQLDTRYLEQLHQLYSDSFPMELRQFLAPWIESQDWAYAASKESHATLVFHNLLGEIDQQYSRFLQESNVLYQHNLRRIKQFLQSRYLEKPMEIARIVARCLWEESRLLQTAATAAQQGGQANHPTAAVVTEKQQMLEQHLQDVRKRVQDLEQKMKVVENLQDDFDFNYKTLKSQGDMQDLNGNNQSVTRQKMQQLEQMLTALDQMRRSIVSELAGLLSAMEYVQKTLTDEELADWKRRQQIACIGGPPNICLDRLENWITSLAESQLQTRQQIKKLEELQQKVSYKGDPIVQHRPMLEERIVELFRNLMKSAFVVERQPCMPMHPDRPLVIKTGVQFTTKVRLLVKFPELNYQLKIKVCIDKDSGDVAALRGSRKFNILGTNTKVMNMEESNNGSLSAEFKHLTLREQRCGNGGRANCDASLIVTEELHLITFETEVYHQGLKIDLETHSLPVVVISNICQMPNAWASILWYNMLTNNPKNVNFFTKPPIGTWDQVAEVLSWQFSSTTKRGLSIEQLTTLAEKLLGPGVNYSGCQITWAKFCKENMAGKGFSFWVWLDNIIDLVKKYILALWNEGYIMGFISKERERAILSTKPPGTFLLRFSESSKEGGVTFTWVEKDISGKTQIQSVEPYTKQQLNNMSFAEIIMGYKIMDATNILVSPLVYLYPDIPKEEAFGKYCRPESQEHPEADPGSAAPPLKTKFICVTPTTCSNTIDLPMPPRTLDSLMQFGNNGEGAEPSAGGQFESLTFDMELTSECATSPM

Row | SMILES | cell death in HMEC cells (LDH) compared to DMSO control [1] | S727P STAT3 expressions (IHC) [2] | Y705 phosphorylation of STAT3 (immunoblot) [2] | expression of Y705PSTAT3 (IHC) [2]
1 | O=C(O)CCC(=O)NCc1csc2ccc(Cl)cc12 [SIM-1, 4-[(5-chloro-1-benzothiophen-3-yl)methylamino]-4-oxobutanoic acid] | unable to augment any significant cell death | did not show any change | strongly and selectively suppressed | significantly suppressed
2 | CCOC(=O)c1c(NC(C)=O)sc2c(Cl)c(/C=N/O)ccc12 [SIM-2, ethyl 2-acetamido-7-chloro-6-(hydroxyiminomethyl)-1-benzothiophene-3-carboxylate] | unable to augment any significant cell death | did not show any change | strongly and selectively suppressed | completely ameliorated
